One molecule from patent US20070190046A1, “Anti-abeta antibody” (Eli Lilly and Company, priority 2004, published 2007) can be followed below.

The test relates to Aβ peptide naturally expressed by HEK 293 cells. Description: Acid urea gel / western blot analysis of Aβ peptide in purified antibody from HEK 293 cell culture with γ-secretase inhibitor. It is filed as cell-based, human. The note with it: for FL (Full length hAβ40) / T2 (N-terminal truncated hAβ40, #2): no-inhibitor control 70; for T1 (N-terminal truncated hAβ40, #1): no-inhibitor control 38; for Total hAβ40: no-inhibitor control 178. The protocol: A γ-secretase inhibitor, [drawing 1] (WO 98/28268), is added to the HEK 293 cell culture in which an anti-Aβ antibody is being expressed to reduce the amount of Aβ peptide naturally expressed by cells. Cell culture samples for this example include a control culture with no inhibitor added, a culture in which 1 nM inhibitor is added at time=0 and every 24 hours thereafter for 5 days (for a 5 day transfection), and a culture in which 1 nM inhibitor is added at time=0. These samples are purified using a Protein A column as well as size exclusion chromatography. The samples are analyzed for Aβ peptide content by acid-urea gel separation and subsequent western blot analysis as detailed below.
The following protocol describes a technique for formic acid denaturation of samples and subsequent electrophoresis through an acid-urea polyacrylamide matrix:
• 1) Clean and assemble acrylamide gel plates for casting. For example, Hoeffer plates into a casting stand (16 cm×14 cm plates with 1.5 mm spacers). Clean plates thoroughly with detergent, rinse in distilled H2O(dH2O), rinse with acetone, and finally rinse with 100% EtOH. • 2) Mark plates at 10 cm (22% separating gel) and 11.75 cm (10% step gel). Making the Gel and Gel Concentrations • 1) Acrylamide (40% solution, such as pre-made Bio-Rad/cat#161-0148)
• Add urea, acrylamide, glacial acetic acid (GAA), and dH2O into 50 mL conical tubes. Vortex briefly and incubate in a 55° C. water bath. Vortex every few minutes until the urea is completely in solution. Degas 22% and 10% solutions and place solutions on ice, leaving the 4% stacker in the water bath. Pouring the Gel (at Room Temperature) • 1) Add N,N,N′,N′-tetramethylethylenediamine (TEMED) to the 22% solution and gently invert several times to mix. Next add the 10% APS (ammonium persulfate) and invert several times. Using a 25 mL pipette, slowly pour solution between the plates until it reaches the 10 cm mark. • 2) Carefully add a 750 μL overlay of 5% GAA. Use a P1000 pipette to very slowly let the 5% GAA run down one side of the glass plates onto the 22% resolving gel. • 3) Allow to polymerize at room temperature for at least 1 hour. • 4) Add the TEMED and 10% APS to the 10%-acrylamide solution in the same manner as for the 22%. Remove the overlay and add the solution until reaching the second mark at 11.75 cm. Again, carefully pour a 750 μL overlay of 5% GAA as above. Allow the gel to polymerize for 30 minutes. • 5) Prior to adding the 4% stacker solution, place the gel stand in a 37° C. incubator for 15 minutes to warm gels. This aids in the wells polymerizing correctly. Degas the 4% stacker solution and keep at 55° C. Remove the overlay. Add the TEMED, invert several times, and then add the 10% APS. Quickly pour this solution and insert a clean-dry 12-well comb (or a 15-well comb). After pouring the stacker, place the stand back in the incubator for 15 minutes then remove. Allow to polymerize on the bench top. The stacker will take at least 1.5 hours to polymerize completely. • *Note: During the polymerization steps, air pockets may appear in the resolving gel. These pockets form due to the change in temperature of the gel during and after polymerization. […] Sample Preparation • Analysis upwards of 3 mg of protein in a single lane will achieve reasonable band results. Conditions for analyzing protein are as follows.
Sample: • 30 μL of […] protein (maximum concentration of protein) • 80 μL formic acid (98%) (ICN cat#15162-90) • 20 μL Acid Loading Buffer (80% formic acid, 60% sucrose and 0.02% methyl green; • Make buffer by dissolving 6 g sucrose in ˜8 mL of ˜99% formic acid. Heat and agitate the mixture. After the sucrose has dissolved, the volume of the solution is adjusted to 10 mL with ˜99% formic acid. Add 2 μL of 1% methyl green solution.) • 1 μl β-Mercaptoethanol • *Note: Adjust volumes as needed. […]
(Immunoblotting shows a protein as a band on a membrane.)

The mark [1] stands for this setting: HEK 293 culture, 1 nM inhibitor added at time=0 only.
[2] abbreviates: HEK 293 culture, 1 nM inhibitor at time=0 and every 24 hours for 5 days.

As to `C[C@H](NC(=O)[C@@H](O)c1cc(F)cc(F)c1)C(=O)N[C@@H]1C(=O)N(C)c2ccccc2-c2ccccc21` [Inhibitor], the “FL (Full length hAβ40)” value (HEK 293 culture expressing anti-Aβ antibody, 1 nM inhibitor added at time=0 and every 24 hours for 5 days) was found to be 4 pg/μg IgG. Under setting [1], the “T1 (N-terminal truncated hAβ40, #1)” value turned out to be 27 pg/μg IgG; the “FL (Full length hAβ40)” value stood at 56 pg/μg IgG; the “T2 (N-terminal truncated hAβ40, #2)” value was determined as 52 pg/μg IgG; the “Total hAβ40” value is listed as 135 pg/μg IgG. Under setting [2], the “T1 (N-terminal truncated hAβ40, #1)” value is reported as 0 pg/μg IgG; the “T2 (N-terminal truncated hAβ40, #2)” value was found to be 3 pg/μg IgG; the “Total hAβ40” value is listed as 7 pg/μg IgG.
